The subject of assay [1] is CDK1 protein. The experiment in a line: Amount of CDK1 protein in cells transfected with RARRES1 and CDK1, treated with protein degradation inhibitors. It is filed as cell-based. To be noted: cells transfected with RARRES1 along with CDK1. As to the method: […]
In addition, when cells were transfected with RARRES1 along with CDK1 using the method of Example 1-1, the amount of the CDK1 protein was reduced. To examine how a quantitative change in the CDK1 protein was regulated, cells were treated with protein degradation inhibitors.

Assay [2] has as its system embryonic epithelial cells. The experiment in a line: Spheroid-formation assay with or without CDK1 inhibitor. It is filed as cell-based, mouse. On the procedure: Mouse embryo fibroblasts (MEFs) and mouse embryo epithelial cells (MEEs) were derived from 13.5-day-old embryos as previously described. That is, after removal of the head and internal organs, embryos were rinsed with phosphate buffered saline (PBS), minced, and treated with trypsin/EDTA to obtain single cells. The MEFs was resuspended in DMEM containing 10% FBS, 2 mM L-glutamine, 0.1 mM MEM nonessential amino acids, 55 uM beta-mercaptoethanol, and 100 IU/ml penicillin, and 100 ug/ml streptomycin. Cell media and reagents were obtained from GIBCO (Paisley, England). The MEEs were cultured in a D-MEM/F-12 medium containing 1% FBS, 1 mg of insulin, 1 mg of hydrocortisone, 12.5 μg of EGF, 10 mg of ascorbic acid, 10 mg of transferin, 14.1 mg of phosphoethanolamine, Na selenite, 1 μg of cholera toxin, 6.5 μg of triiodo thyronine, 35 mg of bovine pituitary extract, ethanolamine, 50 IU/ml of penicillin, and 50 ug/ml of streptomycin. The cells were incubated at 37° C. in a 5% CO2-humidified chamber. After disintegration of the embryos, plating was considered passage 0. All experiments were carried out using cells within passage 5 from three different batches. The genotypes of the MEFs and MEEs were confirmed by genotyping PCR. At least three independently generated cell lines per genotype were used.
In spheroid-formation assay, as mentioned above, advanced DMEM/F12 media used for embryonic epithelial cell culture were employed. The cells from the embryo of Rarres1^+/+ and Rarres1^−/− mice were suspended and seeded in […] with or without RO3306, CDK1 inhibitor, in a 24-well plate at a density of 2,000 or 5,000 cells per well. The size and number of spheres formed while adding 300 μl of a medium once three to four days were measured.

The test system of assay [3] is Rarres1 KO MEFs. Put plainly: Nocodazole treatment of MEFs, flow cytometry, cell counting and western blotting. It is filed as cell-based, mouse. On the procedure:
For analysis of cell cycles or sub-G1 DNA contents, cells were immobilized with 80% ice-cold ethanol, and stored at 4° C. The cells were stained with PBS containing 50 ug/ml of propidium iodide (PI) and 100 ug/ml of RNase A at 37° C. for 30 minutes. DNA content was analyzed by FACS Calibur flow cytometry and the results thereof were analyzed using Cellquest software (Becton-Dickinson Immunocytometry Systems, San Diego, Calif.) and Modfit LT 3.3 software. At least 10,000 cells were analyzed per sample.
Growth was examined using MEFs derived from 13.5-day-old embryos. Cells were plated on a 6-well plate at a density of 20,000 cells/well, and then the number of the cells was counted every day from the following day for 5 days. To examine cell survival in response to nocodazole, which is a cell division inhibitor, cells were treated with 50 ng/ml or 100 ng/ml of nocodazole for 48 hours and cultured. Subsequently, the cells were treated with trypsin/EDTA and detached, followed by cell counting.
It was determined whether a mitotic stress-inducing drug such as nocodazole affects Rarres1 KO MEFs. MEF cells were treated with nocodazole (50 ng/ml or 100 ng/ml) or DMSO for 48 hours, and flow cytometry and cell counting according to Example 1-10 were performed thereon.
For orientation: In flow cytometry, cells or beads pass a laser one at a time.

Assay [4] deals with RARRES1 expression. Put plainly: Restoration of RARRES1 expression by DNA methylation inhibitor, RT-PCR. It is filed as cell-based, human. Conditions: for tested cell lines showing restored RARRES1 expression in a dose-dependent manner: 5, 25 and 100 uM for 5 days. As to the method: Total RNA was extracted from human cancer cell lines including prostate cancer, lung cancer, and breast cancer by using a TRIzol reagent (Invitrogen) according to the manufacturer's instructions, and 1 ug of total RNA was converted into cDNA with a Superscript® reverse transcriptase (Invitrogen). Primers used for human DNA were as follows: RARRES1-1-F ([…]), RARRES1-1-R ([…]), RARRES1-2-F ([…]), RARRES1-2-R ([…]), Cyclin B1-F ([…]), Cyclin B1-R ([…]), Actin-F ([…]), and Actin-R ([…]), and the primers respectively yielded PCR products with predicted sizes of 327 bp, 359 bp, 347 bp, and 626 bp. Primers used for mouse DNA were as follows: Rarres1-F([…]), Rarres1-R ([…]), Gapdh-F (TGCACCACCAACTGCTTA), and Gapdh-R (GGATGCAGGGATGATGTTC), and these primers respectively yielded PCR products with predicted sizes of 653 bp and 177 bp.
To determine whether promoter methylation was associated with the silencing of the RARRES1 expression in cancer cells, cells were treated with 5-aza-2′-deoxycytidine (5-aza-2-dC; 5, 25, and 100 uM) as an inhibitor of DNA methylation for 5 days.

[5] abbreviates: some cancer cells (CWR22rv, T47D).

Molecules are shown by their SMILES. Where a SMILES comes first, the peptide text is derived from it. The star is where a group is joined. Cbz = O=C(OCc1ccccc1)*

Consider `CC(C)C[C@@H](C=O)NC(=O)[C@H](CC(C)C)NC(=O)[C@H](CC(C)C)NC(=O)OCc1ccccc1` [MG132] (Cbz-Leu-Leu-Leu-aldehyde), for which the “amount of the CDK1 protein, which had been decreased by RARRES1” value in assay [1] was “still decreased”.
On to `O=C1NC(=NCc2cccs2)S/C1=C\c1ccc2ncccc2c1` [RO3306], for which the overall spheroid formation result in assay [2] (RO3306-treated versus not treated, cells from Rarres1+/+ and Rarres1-/- embryos) is “significantly reduced”. The entries for the “sphere formation under RO3306” value in assay [2] (embryonic epithelial cells from Rarres1-deficient mice) and in assay [2] (embryonic epithelial cells of the control mice) were “formed spheres” and “barely formed spheres”, respectively.
Take `COC(=O)Nc1nc2ccc(C(=O)c3cccs3)cc2[nH]1` [nocodazole]: in assay [3] (KO cells compared to WT cells, nocodazole treated), the “cleavage of PARP and Caspase 3” value is “decreased”. Moreover, the “number of the cells after nocodazole treatment” value in assay [3] (Rarres1-deficient MEFs versus WT MEFs, 50 or 100 ng/ml, 48 hours) is “less reduced”. Further, the “cell death induced by nocodazole” value in assay [3] (Rarres1-deficient MEFs versus WT MEFs, 50 or 100 ng/ml, 48 hours, dose-dependent) is “significantly reduced”.
Regarding `CO/C1=C\C(C)=C\[C@@H](C)[C@@H](O)[C@@H](C)C/C(C)=C/C=C/[C@H](OC)[C@@H]([C@@H](C)[C@@H](O)[C@H](C)[C@@]2(O)C[C@@H](O)[C@H](C)[C@@H](C(C)C)O2)OC1=O` [BafA1, Bafilomycin A1], in assay [1], the “amount of the CDK1 protein, which had been decreased by RARRES1” value is listed as “increased again”.
Consider `Nc1ncn([C@H]2C[C@H](O)[C@@H](CO)O2)c(=O)n1` [5-aza-2-dC, 5-aza-2′-deoxycytidine], for which, in assay [4] (Calu3 and HCC70 cells having high mRNA levels of RARRES1), the “RARRES1 expression after treatment” value is reported as “failed to have reintroduced RARRES1 expression”. Besides, the “mRNA level of the RARRES1 gene after treatment” value in assay [4] (JIMT-1 cells) is recorded as “reduced”. Moreover, the “tested cell lines showing restored RARRES1 expression in a dose-dependent manner” value came out at 80% in assay [4] (breast cancer cell lines (8/10)), 80% in assay [4] (lung cancer cell lines (4/5)) and 100% in assay [4] (prostate cancer cell lines (4/4)). In addition, the “RARRES1 isoform 1 after treatment” value in assay [4] (setting [5]) was “increased”. Besides, the “RARRES1 isoform 2 after treatment” value in assay [4] (setting [5]) was “not detected”.

These data come from US20220026415A1, “A METHOD FOR SCREENING A THERAPEUTIC AGENT FOR CANCER USING BINDING INHIBITOR OF CYCLIN-DEPENDENT KINASE 1 (CDK1)-CYCLIN B1 AND RETINOIC ACID RECEPTOR RESPONDER 1 (RARRES1) GENE KNOCKOUT ANIMAL MODEL” (NATIONAL CANCER CENTER, priority 2018, published 2022).
